{"source": "patent US9506907B2", "about": "“Bioengineered human trabecular meshwork for biological applications” (The Research Foundation of State University of New York, priority 2012, dated 2016)", "key": {"[1]": {"test_system": "bioengineered HTM (primary HTM cells on gelatin-coated 12 μm SU-8 scaffolds)", "test": "Perfusion of bioengineered HTM on SU-8 scaffold: transmembrane pressure at constant flow", "type": "cell-based, human", "excerpt": "1. The flow system apparatus (FIG. 2) incorporating the principles and features of this invention is contained within a controlled environment, which herein comprises of a stand-alone perfusion chamber, with a cell growth medium entry system (FIG. 2c; 204) and a screening agent (for example a glaucoma drug) entry system (FIG. 2c; 204) as shown in FIG. 2c. The system allows for the screening agent to be added to the perfusate at a pre-determined concentration for a pre-determined number of hours. […]\n8. […] Back pressures were continuously monitored with a pressure transducer and recorded. […]\n(§1) A flow system apparatus for the controlled flow pressure measurement was constructed as shown in FIG. 2C was contained in a perfusion chamber housing comprised of at least a perfusion chamber with an integrated pressure transducer (FIG. 2C; 206), the sterilized, HTM biocompatible coated, SU-8 3-D micro- and nanostructured scaffold with or without HTM cells placed within a cell-culture insert (FIG. 2A; 202) and were secured in the scaffold holder, comprising at least a bottom element adapted for effluent (FIG. 2A; 203), a top element adapted for media entry (FIG. 2A; 201) inside the perfusion chamber (FIG. 2c). […] Back pressures were continuously monitored with a pressure transducer (FIG. 2C; 206) and recorded. […]"}, "[2]": {"test_system": "HTM cells grown on SU-8 scaffolds (morphology, F-actin cytoskeleton)", "test": "SEM and confocal imaging of HTM cells on SU-8 scaffolds after Lat-B perfusion", "type": "cell-based, human", "details": "FIG. 15F", "excerpt": "11. Follow up cell characterization studies may be conducted as desired with standard techniques well known to those of skill in the art. For this invention, samples were fixed and stained for SEM and confocal image analysis as described herein (FIGS. 11-15).\nCells were characterized using standard procedures for SEM, Immunocytochemistry and confocal imaging, well known to those of skill in the art.\nas §1, with “2c). This flow system allowed for simultaneous control of the flow and measurement of the transmembrane pressure, permitting the exploration of the outflow characteristics of the in vitro HTM model.” for “2c).”"}}, "data": [{"smiles": "C/C1=C/C(=O)O[C@@H]2C[C@@H](CC[C@H](C)/C=C\\CC1)O[C@@](O)([C@@H]1CSC(=O)N1)C2", "note": "[Lat-B, latruncunlin-B]", "values": [{"measurement": "perfusion pressure of the artificial trabecular meshwork after Lat-B treatment", "setting": "[1]; FIG. 16, indicates decreased flow resistance", "result": "decreased dramatically"}, {"measurement": "decrease of the resistance to flow", "setting": "[1]; Lat-B added to the perfusate at 2 μM for 4 hours, constant flow, 34° C., N=8, p<0.05 (FIG. 16)", "result": "92±6", "unit": "%"}, {"measurement": "F-actin cytoskeleton (confocal)", "setting": "[2]", "result": "elongated actin fibers were disturbed and became punctate actin bundles"}]}]}
